Measured values from publication PMC2174548 (The Journal of Cell Biology, 2000).

Key:
Format in all cases: cell-based
P-glycoprotein (Pgp) [1] = molecular target: T1, P-glycoprotein (Pgp) (Homo sapiens, UniProt P08183); assay: fluorescence accumulation in PgpGFP-transfected cells
P-glycoprotein (Pgp) [2] = molecular target: T1, P-glycoprotein (Pgp); assay: cellular drug accumulation versus Pgp expression
P-glycoprotein (Pgp) [3] = molecular target: T1, P-glycoprotein (Pgp); assay: protection from microtubule depolymerization in PgpGFP-transfected HeLa cells
P-glycoprotein (Pgp) [4] = molecular target: T1, P-glycoprotein (Pgp); assay: fluorescence accumulation in PgpCFP-transfected cells
P-glycoprotein (Pgp) [5] = molecular target: T1, P-glycoprotein (Pgp); assay: protection from microtubule depolymerization in PgpGFP-transfected HeLa cells; remark: listed apart in the source

T1 sequence (P08183 whole entry): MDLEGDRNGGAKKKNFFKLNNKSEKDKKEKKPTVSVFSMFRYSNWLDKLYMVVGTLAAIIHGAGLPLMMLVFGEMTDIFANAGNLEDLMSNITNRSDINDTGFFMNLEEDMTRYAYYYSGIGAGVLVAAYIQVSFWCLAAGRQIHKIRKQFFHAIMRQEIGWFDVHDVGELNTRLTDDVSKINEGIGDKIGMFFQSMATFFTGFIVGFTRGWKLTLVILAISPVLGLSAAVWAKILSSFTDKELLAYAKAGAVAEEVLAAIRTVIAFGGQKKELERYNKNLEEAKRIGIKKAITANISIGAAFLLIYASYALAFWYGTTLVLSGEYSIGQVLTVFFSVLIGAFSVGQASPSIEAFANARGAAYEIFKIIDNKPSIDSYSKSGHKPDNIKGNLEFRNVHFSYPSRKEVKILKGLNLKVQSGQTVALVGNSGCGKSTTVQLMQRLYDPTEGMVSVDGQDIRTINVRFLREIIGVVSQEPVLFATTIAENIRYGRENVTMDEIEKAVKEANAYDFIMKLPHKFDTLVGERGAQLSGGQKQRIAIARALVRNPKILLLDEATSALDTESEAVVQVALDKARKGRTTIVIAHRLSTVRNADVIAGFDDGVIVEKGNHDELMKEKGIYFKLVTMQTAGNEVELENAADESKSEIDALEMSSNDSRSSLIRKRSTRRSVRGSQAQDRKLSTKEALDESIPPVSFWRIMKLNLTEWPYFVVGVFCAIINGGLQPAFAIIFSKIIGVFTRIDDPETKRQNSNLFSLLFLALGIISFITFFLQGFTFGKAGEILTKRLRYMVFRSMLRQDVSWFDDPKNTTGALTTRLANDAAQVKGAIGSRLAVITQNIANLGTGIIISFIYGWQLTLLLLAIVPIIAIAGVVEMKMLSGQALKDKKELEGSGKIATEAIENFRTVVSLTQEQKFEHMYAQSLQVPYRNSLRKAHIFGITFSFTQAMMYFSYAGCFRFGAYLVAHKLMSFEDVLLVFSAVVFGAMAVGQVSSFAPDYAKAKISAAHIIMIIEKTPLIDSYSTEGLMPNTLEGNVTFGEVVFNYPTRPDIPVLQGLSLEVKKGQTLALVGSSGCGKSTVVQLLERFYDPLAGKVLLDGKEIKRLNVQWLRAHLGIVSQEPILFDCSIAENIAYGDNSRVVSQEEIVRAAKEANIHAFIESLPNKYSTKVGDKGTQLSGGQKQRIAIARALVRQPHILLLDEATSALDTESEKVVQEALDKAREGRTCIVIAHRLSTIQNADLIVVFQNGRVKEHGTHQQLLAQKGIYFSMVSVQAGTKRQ

Structure (SMILES): CC(=O)OCOC(=O)CN(CC(=O)OCOC(C)=O)c1ccc(C)cc1OCCOc1cc2cc(-c3ncc(C(=O)OCOC(C)=O)o3)oc2cc1N(CC(=O)OCOC(C)=O)CC(=O)OCOC(C)=O [Fura-2 AM]
- Effects on fluorescence (P-glycoprotein (Pgp) [1]): > 10 fold

Structure (SMILES): O=C1c2c(O)ccc(O)c2C(=O)c2c(NCCNCCO)ccc(NCCNCCO)c21 [mitoxantrone]
- cellular drug accumulation versus Pgp expression (data not shown) (P-glycoprotein (Pgp) [2]): the level of Pgp expression was inversely related to the cellular accumulation of mitoxantrone

Structure (SMILES): COc1cc2c(c(OC)c1OC)-c1ccc(OC)c(=O)cc1[C@@H](NC(C)=O)CC2 [colchicine]
- Fold resistance (P-glycoprotein (Pgp) [3]): 5–25 fold

Structure (SMILES): CC(=O)OCOC(=O)CN(CC(=O)OCOC(C)=O)Cc1cc2c(cc1OC(C)=O)Oc1cc(OC(C)=O)c(CN(CC(=O)OCOC(C)=O)CC(=O)OCOC(C)=O)cc1C21OC(=O)c2ccccc21 [Calcein AM]
- Effects on fluorescence (P-glycoprotein (Pgp) [4]): > 10 fold

Structure (SMILES): CC[C@]1(O)C[C@H]2CN(CCc3c([nH]c4ccccc34)[C@@](C(=O)OC)(c3cc4c(cc3OC)N(C=O)[C@H]3[C@@](O)(C(=O)OC)[C@H](OC(C)=O)[C@]5(CC)C=CCN6CC[C@]43[C@@H]65)C2)C1 [vincristine]
- protection from microtubule depolymerization in PgpGFP-transfected HeLa cells (2) (P-glycoprotein (Pgp) [5]): 25–125 fold
